For orientation: IC50 means the concentration that inhibits the measured activity by half. A lower IC50 goes with greater potency in that assay.

The target of this experiment is activated ERK2 (Homo sapiens (Human), UniProt P28482). Nature of the experiment: Activated ERK2 kinase assay, ERK2 New conditions (AlphaScreen, ERKtide phosphorylation). The experiment is classed as biochemical. The following applies: 0.25 nM ERK2, 200 nM ERKtide peptide, 35 μM ATP, 30 min preincubation. As for the experimental part: The assay is carried out in 50 mM HEPES [pH 7.5], 5 mM MgCl2, 1 mM DTT, 0.01% Tween-20, 0.05% BSA using 0.25 nM ERK2, 200 nM ERKtide peptide and 35 μM ATP (all concentrations are final in the reaction) in a total volume of 10.25 μL. […] Compound dilution series are prepared in 100% DMSO. ERK2 is preincubated with compounds for 30 minutes at ambient temperature. Reaction is initiated by addition of a substrate cocktail of ERKtide peptide and ATP and is allowed to proceed for 2-3 hours at ambient temperature. Reaction is terminated by addition of 10 μL of a 2× stop buffer consisting of 100 mM Tris-Cl [pH 7.5], 25 mM EDTA, 0.01% Tween 20, 10 μg/mL of AlphaScreen Protein A Acceptor Beads, 10 μg/mL of Streptavidin Donor Beads (PerkinElmer, Waltham, Mass.), and 1.4 μg/mL phospho-EGF Receptor (Thr669) antibody (Cat #3056, Cell Signaling Technology, Danvers, Mass.). Terminated reactions are read, after overnight incubation in the dark, on an EnVision Multilabel Plate Reader (PerkinElmer, Waltham, Mass.), with excitation and emission wavelengths set to 680 nm and 570 nm, respectively. IC50 values are determined using a four-parameter fit.
Chain of activated ERK2 (P28482 whole entry): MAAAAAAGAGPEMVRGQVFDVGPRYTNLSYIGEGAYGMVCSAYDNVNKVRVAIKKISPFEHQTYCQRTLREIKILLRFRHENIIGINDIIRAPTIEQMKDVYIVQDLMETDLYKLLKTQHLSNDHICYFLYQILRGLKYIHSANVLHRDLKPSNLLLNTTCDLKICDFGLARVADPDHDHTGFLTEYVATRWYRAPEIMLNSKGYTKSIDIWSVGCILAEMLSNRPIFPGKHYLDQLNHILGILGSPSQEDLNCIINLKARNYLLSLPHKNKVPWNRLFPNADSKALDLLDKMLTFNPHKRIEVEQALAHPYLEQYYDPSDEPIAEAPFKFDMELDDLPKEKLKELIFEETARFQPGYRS
Background: Alpha assays give light when donor and acceptor beads are brought close together.
For the compound `Nc1ncc(C2CCOCC2)nc1-c1ccc(C(=O)NC(c2ccccc2)C(F)(F)F)c(F)c1` (racemic) [Example 51, (+/−)-4-(3-amino-6-(tetrahydro-2H-pyran-4-yl)pyrazin-2-yl)-2-fluoro-N-(2,2,2-trifluoro-1-phenylethyl)benzamide], the IC50 is 27 nM. Next, `CC(CO)c1cnc(N)c(-c2ccc(C(=O)NCc3ccccc3)c(F)c2)n1` (racemic) [Example 115, (+/−)-4-(3-amino-6-(1-hydroxypropan-2-yl)pyrazin-2-yl)-N-benzyl-2-fluorobenzamide]: 274 nM; `Nc1ncc(C2CCC(=O)NC2)nc1-c1ccc(C(=O)NCc2ccccc2)c(F)c1` (racemic) [Example 117, (+/−)-4-(3-amino-6-(6-oxopiperidin-3-yl)pyrazin-2-yl)-N-benzyl-2-fluorobenzamide]: 4.79 nM. `Nc1ncc(C2CCC(=O)NC2)cc1-c1ccc(C(=O)NCc2ccccc2)c(F)c1` (racemic) [Example 118, (+/−)-4-(2-amino-5-(6-oxopiperidin-3-yl)pyridin-3-yl)-N-benzyl-2-fluorobenzamide] had an IC50 of 17.6 nM. Take `CO[C@@H]1CCC[C@H](c2cnc(N)c(-c3ccc(C(=O)NCc4ccccc4)c(F)c3)n2)C1` (racemic) [Example 124, (+/−)-cis-4-(3-amino-6-(3-methoxycyclohexyl)pyrazin-2-yl)-N-benzyl-2-fluorobenzamide]: the IC50 was determined as 62.6 nM.

In turn, `Nc1ncc([C@@H]2CCS(=O)(=O)C2)cc1-c1ccc(C(=O)NCc2ccccc2)c(F)c1` (single isomer, unassigned) [Example 5] registered an IC50 of 278 nM. Next, `Nc1ncc([C@H]2CCS(=O)(=O)C2)cc1-c1ccc(C(=O)NCc2ccccc2)c(F)c1` (single isomer, unassigned) [Example 6]: 354 nM; `CN(Cc1ncccn1)C(=O)c1ccc(-c2cc(C3CCOCC3)cnc2N)cc1F` [Example 3, 4-(2-amino-5-(tetrahydro-2H-pyran-4-yl)pyridin-3-yl)-2-fluoro-N-methyl-N-(pyrimidin-2-ylmethyl)benzamide]: 12300 nM; `Nc1ncc([C@@H]2CN[C@H](CO)C2)cc1-c1ccc(C(=O)N[C@H](CO)c2cccc(Cl)c2)c(F)c1` [Example 7, 4-(2-amino-5-((3R,5S)-5-(hydroxymethyl)pyrrolidin-3-yl)pyridin-3-yl)-N—((S)-1-(3-chlorophenyl)-2-hydroxyethyl)-2-fluorobenzamide]: 65.2 nM. Regarding `Nc1ncc([C@H]2C[C@H]3COCC(=O)N3C2)cc1-c1ccc(C(=O)N[C@H](CO)c2cccc(Cl)c2)c(F)c1` [Example 8, 4-(2-amino-5-((7R,8aS)-4-oxohexahydro-1H-pyrrolo[2,1-c][1,4]oxazin-7-yl)pyridin-3-yl)-N—((S)-1-(3-chlorophenyl)-2-hydroxyethyl)-2-fluorobenzamide], half-maximal inhibition (IC50) was put at 4.12 nM.

In the case of `Nc1ncc([C@H]2C[C@H]3COC(=O)N3C2)cc1-c1ccc(C(=O)N[C@H](CO)c2cccc(Cl)c2)c(F)c1` [Example 9, 4-(2-amino-5-((6R,7aS)-3-oxohexahydropyrrolo[1,2-c]oxazol-6-yl)pyridin-3-yl)-N—((S)-1-(3-chlorophenyl)-2-hydroxyethyl)-2-fluorobenzamide], the IC50 amounted to 3.57 nM. Next, `N=C1OC[C@@H]2C[C@H](c3cnc(N)c(-c4ccc(C(=O)N[C@H](CO)c5cccc(Cl)c5)c(F)c4)c3)CN12` [Example 10, 4-(2-amino-5-((6R,7aS)-3-iminohexahydropyrrolo[1,2-c]oxazol-6-yl)pyridin-3-yl)-N—((S)-1-(3-chlorophenyl)-2-hydroxyethyl)-2-fluorobenzamide]: 12.1 nM; `Nc1ncc([C@H]2C[C@H]3COC(=S)N3C2)cc1-c1ccc(C(=O)N[C@H](CO)c2cccc(Cl)c2)c(F)c1` [Example 11, 4-(2-amino-5-((6R,7aS)-3-thioxohexahydropyrrolo[1,2-c]oxazol-6-yl)pyridin-3-yl)-N—((S)-1-(3-chlorophenyl)-2-hydroxyethyl)-2-fluorobenzamide]: 3.77 nM. Under `Nc1ncc([C@H]2CC[C@H](O)CC2)nc1-c1ccc(C(=O)NCc2ccccc2)c(F)c1` [Example 14, 4-(3-amino-6-((1r,4r)-4-hydroxycyclohexyl)pyrazin-2-yl)-N-benzyl-2-fluorobenzamide] stands 12.7 nM. Next, `Nc1ncc([C@H]2CC[C@@H](O)CC2)nc1-c1ccc(C(=O)NCc2ccccc2)c(F)c1` [Example 15, 4-(3-amino-6-((1s,4s)-4-hydroxycyclohexyl)pyrazin-2-yl)-N-benzyl-2-fluorobenzamide]: 235 nM. In the case of `COC(=O)CCc1cnc(N)c(-c2ccc(C(=O)NCc3ccccc3)c(F)c2)n1` [Example 19, methyl 3-(5-amino-6-(4-(benzylcarbamoyl)-3-fluorophenyl)pyrazin-2-yl)propanoate], the midpoint of inhibition, the IC50, lay at 6030 nM.

The compound `CNC(=O)CCc1cnc(N)c(-c2ccc(C(=O)NCc3ccccc3)c(F)c2)n1` [Example 20, 4-(3-amino-6-(3-(methylamino)-3-oxopropyl)pyrazin-2-yl)-N-benzyl-2-fluorobenzamide] registered a 50% inhibitory concentration (IC50) of 1090 nM. `CS(=O)(=O)CCc1cnc(N)c(-c2ccc(C(=O)NCc3ccccc3)c(F)c2)n1` [Example 21, 4-(3-amino-6-(2-(methylsulfonyl)ethyl)pyrazin-2-yl)-N-benzyl-2-fluorobenzamide] showed an IC50 of 2670 nM.

Take `Nc1ncc(C2CCC(=O)NC2)cc1-c1ccc(C(=O)N[C@H](CO)c2cccc(Cl)c2)c(F)c1` (stereo partly drawn) [Example 25, 4-(2-amino-5-(6-oxopiperidin-3-yl)pyridin-3-yl)-N—((S)-1-(3-chlorophenyl)-2-hydroxyethyl)-2-fluorobenzamide]: the half-inhibitory concentration (IC50) worked out at 0.343 nM. Next, `CN1CCC(c2cnc(N)c(-c3ccc(C(=O)N[C@H](CO)c4cccc(Cl)c4)c(F)c3)c2)CC1=O` (stereo partly drawn) [Example 26, 4-(2-amino-5-(1-methyl-2-oxopiperidin-4-yl)pyridin-3-yl)-N—((S)-1-(3-chlorophenyl)-2-hydroxyethyl)-2-fluorobenzamide]: 3.27 nM. Next, `C[C@@H](NC(=O)c1ccc(-c2cc(C3CCN(C)C(=O)C3)cnc2N)cc1F)c1ccccc1` (stereo partly drawn) [Example 29, 4-(2-amino-5-(1-methyl-2-oxopiperidin-4-yl)pyridin-3-yl)-2-fluoro-N—((R)-1-phenylethyl)benzamide]: 75.2 nM; `CN1CC(c2cnc(N)c(-c3ccc(C(=O)N[C@H](CO)c4cccc(Cl)c4)c(F)c3)c2)CCC1=O` (stereo partly drawn) [Example 35, 4-(2-amino-5-(1-methyl-6-oxopiperidin-3-yl)pyridin-3-yl)-N—((S)-1-(3-chlorophenyl)-2-hydroxyethyl)-2-fluorobenzamide]: 1.09 nM; `CN1C[C@@H](c2cnc(N)c(-c3ccc(C(=O)N[C@H](CO)c4cccc(Cl)c4)c(F)c3)c2)CCC1=O` [Example 36, 4-(2-amino-5-((R)-1-methyl-6-oxopiperidin-3-yl)pyridin-3-yl)-N—((S)-1-(3-chlorophenyl)-2-hydroxyethyl)-2-fluorobenzamide]: 1.6 nM. Under `CN1C[C@H](c2cnc(N)c(-c3ccc(C(=O)N[C@H](CO)c4cccc(Cl)c4)c(F)c3)c2)CCC1=O` [Example 37, 4-(2-amino-5-((S)-1-methyl-6-oxopiperidin-3-yl)pyridin-3-yl)-N—((S)-1-(3-chlorophenyl)-2-hydroxyethyl)-2-fluorobenzamide] stands 1.05 nM; under `C[C@@H](NC(=O)c1ccc(-c2cc(C3CCC(=O)N(C)C3)cnc2N)cc1F)c1cccc(Cl)c1` (stereo partly drawn) [Example 38, 4-(2-amino-5-(1-methyl-6-oxopiperidin-3-yl)pyridin-3-yl)-N—((R)-1-(3-chlorophenyl)ethyl)-2-fluorobenzamide], 8.09 nM. In turn, `CN1CC(c2cnc(N)c(-c3ccc(C(=O)N[C@H](CO)c4ccccc4)c(F)c3)c2)CC1=O` (stereo partly drawn) [Example 41, 4-(2-amino-5-(1-methyl-5-oxopyrrolidin-3-yl)pyridin-3-yl)-2-fluoro-N—((S)-2-hydroxy-1-phenylethyl)benzamide] had an IC50 of 51 nM. Compound `CN1CC(c2cnc(N)c(-c3ccc(C(=O)N[C@H](CO)c4cccc(Cl)c4)c(F)c3)c2)CC1=O` (stereo partly drawn) [Example 42, 4-(2-amino-5-(1-methyl-5-oxopyrrolidin-3-yl)pyridin-3-yl)-N—((S)-1-(3-chlorophenyl)-2-hydroxyethyl)-2-fluorobenzamide] yielded an IC50 of 5.44 nM. Next, `CN1C[C@@H](c2cnc(N)c(-c3ccc(C(=O)N[C@H](CO)c4cccc(Cl)c4)c(F)c3)c2)CC1=O` [Example 43, 4-(2-amino-5-((R)-1-methyl-5-oxopyrrolidin-3-yl)pyridin-3-yl)-N—((S)-1-(3-chlorophenyl)-2-hydroxyethyl)-2-fluorobenzamide]: 5.32 nM; `CN1C[C@H](c2cnc(N)c(-c3ccc(C(=O)N[C@H](CO)c4cccc(Cl)c4)c(F)c3)c2)CC1=O` [Example 44, 4-(2-amino-5-((S)-1-methyl-5-oxopyrrolidin-3-yl)pyridin-3-yl)-N—((S)-1-(3-chlorophenyl)-2-hydroxyethyl)-2-fluorobenzamide]: 4.77 nM. Next, `CC1(c2cnc(N)c(-c3ccc(C(=O)N[C@H](CO)c4ccccc4)c(F)c3)c2)CCOCC1` [Example 45, (S)-4-(2-Amino-5-(4-methyltetrahydro-2H-pyran-4-yl)pyridin-3-yl)-2-fluoro-N-(2-hydroxy-1-phenylethyl)benzamide]: 3.61 nM.

These data come from patent US9242996B2 (Novartis AG, priority 2013, dated 2016).
